According to PubChem BioAssay AID330 (DTP/NCI, 2004):
Where “and” joins values, the source holds several entries; their conditions need not be identical. Equal values may be shown once. Inconclusive results and toxic doses are left out. The calls were made as follows: active = survival T/C of 150% or more; inactive = T/C below 125% in these data.

Tested on: P388 leukemia ip, CD2F1 mice, survival T/C
Assay: NCI In Vivo Anticancer Drug Screen. Data for tumor model P388 Leukemia (intraperitoneal) in CD2F1 (CDF1) mice
Conditions: endpoint: median survival time, higher = longer survival
Procedure, shortened: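 Mice carrying the transplanted tumor received test compound or vehicle. Survival was recorded in each group, and the value is the treated-group measurement divided by that of the vehicle-treated control group.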

[1] = dose: 12.5 mg/kg/injection, schedule: Q01DX009 (ip), vehicle: Klucel (hydroxypropylcellulose) (HPC)
[2] = dose: 25.0 mg/kg/injection, schedule: Q01DX009 (ip), vehicle: Klucel (hydroxypropylcellulose) (HPC)
[3] = dose: 50.0 mg/kg/injection, schedule: Q01DX009 (ip), vehicle: Klucel (hydroxypropylcellulose) (HPC)
[4] = dose: 50.0 mg/kg/injection, schedule: Q01DX005 (ip), vehicle: saline with Tween-80
[5] = dose: 100.0 mg/kg/injection, schedule: Q01DX005 (ip), vehicle: saline with Tween-80

Measured: T/C

O=C(CSC(c1ccccc1)(c1ccccc1)c1ccccc1)c1ccc([N+](=O)[O-])cc1
inactive: dose: 50.0 mg/kg/injection, schedule: Q01DX005 (ip), vehicle: Klucel (hydroxypropylcellulose) (HPC) 100 % of control | dose: 100.0 mg/kg/injection, schedule: Q01DX005 (ip), vehicle: Klucel (hydroxypropylcellulose) (HPC) 105 % of control | dose: 200.0 mg/kg/injection, schedule: Q01DX005 (ip), vehicle: Klucel (hydroxypropylcellulose) (HPC) 95 % of control

O=C(Nc1cccc(C(F)(F)F)c1)C(Cl)=C(Cl)Cl
inactive: dose: 60.0 mg/kg/injection, schedule: Q01DX005 (ip), vehicle: Klucel (hydroxypropylcellulose) (HPC) 103 % of control | dose: 120.0 mg/kg/injection, schedule: Q01DX005 (ip), vehicle: Klucel (hydroxypropylcellulose) (HPC) 111 % of control | dose: 240.0 mg/kg/injection, schedule: Q01DX005 (ip), vehicle: Klucel (hydroxypropylcellulose) (HPC) 95 % of control

CC(C)[C@](O)(C(=O)OCC1CC[N+]2([O-])CC[C@@H](O)C12)[C@H](C)O (stereo partly specified)
inactive: dose: 187.5 mg/kg/injection, schedule: Q01DX009 (ip), vehicle: saline 94 % of control | dose: 375.0 mg/kg/injection, schedule: Q01DX009 (ip), vehicle: saline 106 % of control | dose: 750.0 mg/kg/injection, schedule: Q01DX009 (ip), vehicle: saline 95 % of control | dose: 1500.0 mg/kg/injection, schedule: Q01DX009 (ip), vehicle: saline 106 % of control

C[N+](C)(Cc1ccc(Br)cc1)C1c2ccccc2-c2ccccc21
inactive: [1] 107 % of control | [2] 108 % of control | [3] 115 % of control and 98 % of control

NCCSSc1ccc([N+](=O)[O-])cc1
inactive: dose: 12.5 mg/kg/injection, schedule: Q04DX002 (ip), vehicle: Klucel (hydroxypropylcellulose) (HPC) 95 % of control | dose: 25.0 mg/kg/injection, schedule: Q04DX002 (ip), vehicle: Klucel (hydroxypropylcellulose) (HPC) 86 % of control

O=C(Nc1ccc(Cl)cc1)c1cc2c(cc1O)[nH]c1ccccc12
inactive: [4] 92 % of control | [5] 96 % of control | dose: 200.0 mg/kg/injection, schedule: Q01DX005 (ip), vehicle: saline with Tween-80 98 % of control

Cc1cc(Nc2cc(=O)[nH]c(=O)[nH]2)ccc1N
inactive: dose: 60.0 mg/kg/injection, schedule: Q01DX005 (ip), vehicle: saline with Tween-80 97 % of control | dose: 120.0 mg/kg/injection, schedule: Q01DX005 (ip), vehicle: saline with Tween-80 97 % of control | dose: 240.0 mg/kg/injection, schedule: Q01DX005 (ip), vehicle: saline with Tween-80 93 % of control

O=C(Nc1ccc(Cc2ccc(NC(=O)C34CC5CC(CC(C5)C3)C4)cc2)cc1)C12CC3CC(CC(C3)C1)C2
inactive: [4] 88 % of control | [5] 88 % of control

COc1ccc(NCCOc2ccccc2Br)cc1
inactive: dose: 100.0 mg/kg/injection, schedule: Q04DX003 (ip), vehicle: other 90 % of control | dose: 132.0 mg/kg/injection, schedule: Q01DX009 (ip), vehicle: other 123 % of control | dose: 200.0 mg/kg/injection, schedule: Q01DX009 (ip), vehicle: other 104 % of control | dose: 200.0 mg/kg/injection, schedule: Q04DX003 (ip), vehicle: other 90 % of control | dose: 300.0 mg/kg/injection, schedule: Q01DX009 (ip), vehicle: other 100 % of control | dose: 400.0 mg/kg/injection, schedule: Q04DX003 (ip), vehicle: other 95 % of control

NC(CC(C(=O)O)c1ccccc1)C(=O)O (stereo unspecified)
inactive: dose: 50.0 mg/kg/injection, schedule: Q01DX009 (ip), vehicle: saline with Tween-80 106 % of control | dose: 100.0 mg/kg/injection, schedule: Q01DX009 (ip), vehicle: saline with Tween-80 94 % of control | dose: 200.0 mg/kg/injection, schedule: Q01DX009 (ip), vehicle: saline with Tween-80 94 % of control

Cn1c(N)c(C(=O)Cc2ccccc2)c(=O)n(C)c1=O
inactive: dose: 100.0 mg/kg/injection, schedule: Q04DX003 (ip), vehicle: Klucel (hydroxypropylcellulose) (HPC) 109 % of control | dose: 200.0 mg/kg/injection, schedule: Q04DX003 (ip), vehicle: Klucel (hydroxypropylcellulose) (HPC) 100 % of control | dose: 400.0 mg/kg/injection, schedule: Q04DX003 (ip), vehicle: Klucel (hydroxypropylcellulose) (HPC) 109 % of control

COC(=O)CC1(C(=O)OC)C2=C(C(=O)c3ccccc3C2=O)N2CCCC21 (stereo unspecified)
inactive: [1] 99 % of control | [2] 100 % of control | [3] 106 % of control | dose: 100.0 mg/kg/injection, schedule: Q01DX009 (ip), vehicle: Klucel (hydroxypropylcellulose) (HPC) 103 % of control

CCOc1c(N=Nc2ccc(Cl)cc2)c(C)nn1C(=S)SC
inactive: dose: 7.5 mg/kg/injection, schedule: Q01DX005 (ip), vehicle: Klucel + Tween-80 92 % of control | dose: 15.0 mg/kg/injection, schedule: Q01DX005 (ip), vehicle: Klucel + Tween-80 86 % of control | dose: 30.0 mg/kg/injection, schedule: Q01DX005 (ip), vehicle: Klucel + Tween-80 86 % of control | dose: 60.0 mg/kg/injection, schedule: Q01DX005 (ip), vehicle: Klucel + Tween-80 94 % of control

NC1(O)C(=O)NC(=O)NC1=O
inactive: dose: 60.0 mg/kg/injection, schedule: Q01DX005 (ip), vehicle: saline 101 % of control | dose: 120.0 mg/kg/injection, schedule: Q01DX005 (ip), vehicle: saline 93 % of control | dose: 240.0 mg/kg/injection, schedule: Q01DX005 (ip), vehicle: saline 88 % of control
